Assays:
[1] = test system: Aβ aggregation in Tet-On Aβ-GFP Flp-In 293 cells; assay: Inhibition of abnormal β-amyloid aggregation test (GFP fluorescence, high-content analysis); type: cell-based, human; details: for GFP fluorescence: untreated 100%
Method: GFP fluorescence was used to reflect Aβ aggregation status as Aβ aggregated to cause the fused GFP misfolded, and thus cause the reduction of fluorescence on Aβ-GFP expressing cells. Inhibition of Aβ aggregation may improve GFP misfolding and lead to increased fluorescence on Aβ-GFP expressing cells. […] Then doxycycline (Dox) (2 μg/mL) was added to the cells for 64 hours to induce the Aβ-GFP expression, and GFP fluorescence was assessed by a high-content analysis (HCA) system (ImageXpressMICRO, available from Molecular Devices). The experiment also tested the inhibition effect of Aβ aggregation by curcumin (1-10 μM) and licochalcone A (0.001-100 μM). In the experiment, the amount of fluorescence measured in the untreated group (untreated with compounds) was 100%, and the sample number of each group was n=3.

[2] = MTT cytotoxicity test, un-induced cells; type: cell-based, human; details: human
Method: (§1) This experiment was to test the toxicity of compounds (I-1), (I-2), (I-3), (I-4), and (I-5) to un-induced Tet-On Aβ-GFP Ftp-In 293 and SH-SY5Y cells. Un-induced Tet-On Aβ-GFP Flp-In 293 and SH-SY5Y cells were treated with compounds (I-1), (I-2), (I-3), (I-4), and (I-5) in different concentrations from 0.1 to 100 μM for 24 hours, followed by conducting MTT assay to test the cytotoxicity of the compounds. The experiment also tested the cytotoxicity of licochalcone A (0.1-100 μM) and curcumin (1-10 μM) to the un-induced Tet-On Aβ-GFP Flp-In 293 and SH-SY5Y cells. In the experiment, the relative cellular survival rate of untreated cells was 100%, the half maximal inhibitory concentration (IC50) of each compound was calculated by using interpolation, and the sample number of each group was n=3.

[3] = Cytotoxicity of induced cells, propidium iodide staining and flow cytometer; type: cell-based, human; details: human
[4] = Solubility test in cell culture medium; type: physicochemical; details: plasma or biological fluid, vortex mixing, centrifugation five minutes at 13,000 g, read-out: solubility in cell culture medium (completely soluble up to)
Method: This experiment was to test the solubility of compound (I-1), compound (I-2), compound (I-3), compound (I-4), and compound (I-5) in cell culture medium. After vortex mixing and centrifugation for five minutes at 13,000 g, the compounds were completely soluble in the cell culture medium up to 100 μM.

[5] = test system: un-induced Tet-On Aβ-GFP Flp-In 293 and SH-SY5Y cells; assay: MTT cytotoxicity test, un-induced cells; type: cell-based, human; details: MTT, 24 hours; range over un-induced Flp-In 293 (FIG. 1A) and SH-SY5Y (FIG. 1B) cells
Method: as §1

[6] = test system: Tet-On Aβ-GFP Flp-In 293 cells; assay: Cytotoxicity of induced cells, propidium iodide staining and flow cytometer; type: cell-based, human; details: induced cells, PI staining, flow cytometer (FIG. 3C)
[7] = 0.001-10 μM, cell survival rate more than 80%
[8] = 0.001-1 μM, cell survival rate more than 80%

solubility [4]	Structure (SMILES)	IC50 at 24 h [2]	IC50 [3]	other results
≥ 100 µM	O=C(c1ccccc1)c1cc2c(O)cccc2oc1=O [Compound (I-5)]	> 100 µM	95.1 µM	GFP fluorescence [1, 7]: 107-125%
≥ 100 µM	COc1ccc(C(=O)/C=C/c2cc(Br)ccc2O)cc1 [Compound (I-1)]	8 to 51 µM	47.7 µM	GFP fluorescence ([1]; 0.001-0.1 μM, cell survival rate more than 80%): 103-111%
≥ 100 µM	Cc1ccc(/C=C/C(=O)c2c(O)c3ccccc3oc2=O)cc1 [Compound (I-3)]	≥ 55 µM	80.6 µM	GFP fluorescence [1, 7]: 103-117%
–	C=CC(C)(C)c1cc(/C=C/C(=O)c2ccc(O)cc2)c(OC)cc1O [licochalcone A, reference compound]	–	–	GFP fluorescence [1, 8]: 105-115%; IC50 [5]: 47 to 51 µM; IC50 [6]: 62.3 µM
≥ 100 µM	COc1ccc(O)c(/C=C/C(=O)c2ccccc2)c1 [Compound (I-2)]	10 to 51 µM	57.5 µM	GFP fluorescence [1, 8]: 105-112%
≥ 100 µM	COc1cccc(/C=C/C(=O)c2ccc(O)cc2)c1O [Compound (I-4)]	45 to 71 µM	60.9 µM	GFP fluorescence ([1]; 0.01-1 μM, cell survival rate more than 80%): 102-105%
–	COc1cc(/C=C/C(=O)CC(=O)/C=C/c2ccc(O)c(OC)c2)ccc1O [curcumin, reference compound]	> 10 µM	–	cell number ([1]; curcumin 2.5 μM and 5 μM): more than 80 % of untreated cells; GFP fluorescence ([1]; curcumin 2.5 μM and 5 μM): 107-120%

Reference: patent US10716768B2, “Method for treating abnormal B-amyloid aggregation mediated diseases” (NATIONAL TAIWAN NORMAL UNIVERSITY, priority 2016, dated 2020)
